According to patent US20260209260A1, “VECTORIZED NHC IRIDIUM(III) COMPLEXES AND USE THEREOF IN PHOTODYNAMIC THERAPY AND/OR DIAGNOSTIC” (CENTRE NATIONAL DE LA RECHERCHE SCIENTIFIQUE, priority 2022, published 2026):
Where two headings read alike, the source gives them in different places.

Columns and labels:
[1] = Singlet oxygen (1O2) production, ABDA indicator, blue LED 458 nm; details: for depletion of the ABDA absorbance at 380 nm (1O2 production): 4.5 mWcm^−2, 5-45 min, PBS pH 7.4; for consumption of ABDA (1O2 production): 4.5 mWcm^−2
Experimental: The detection of […] generation of iridium complexes was measured with 9,10-anthracenediyl-bis(methylene)dimalonic acid (ABDA) as an ^1O2 indicator and Ru(bpy)3Cl2 as a standard according to a modified reported method. Experiments were conducted using ABDA (50 μM) in phosphate buffered solution (PBS, pH 7.4), the respective iridium complex, i.e. (I-e), (I-g), (I-h), (I-j), (II-e), (II-g), (II-h), (II-j), (III-i), (III-j), (III-k), (III-h), (IV-i), (IV-j), (IV-k), (IV-h) and Ru(bpy)3Cl2 (5 μM) in a mixture of H2O/CH3CN (50/50) with a ratio ABDA/complex of […] and a final volume of 3 mL. ABDA oxidation was monitored by UV-vis spectrophotometry. The samples were irradiated with a blue custom-made LED plate (458 nm, 4.5 mWcm^−2). During irradiation UV-vis absorption spectra were recorded at 5, 10, 15, 20, 30 and 45 min. The ^1O2 generation was followed by monitoring the absorption spectral change at 380 nm of ABDA versus time.

[2] = system: PSMA-positive cells (C4-2b and 22Rv1); test: Cell viability assay (MTT), summary over PSMA-positive cancer cells; type: cell-based, Human; details: blue light 458 nm; read-out: GI50 mean over PSMA-positive cancer cells, irradiated
Experimental: (§1) Cells were grown in humidified incubators at 37° C. in 5% CO2. Murine MC3T3 osteoblast and NIH-3T3 fibroblast cells-used as non-tumor cell models-were cultured in a-MEM medium and DMEM medium supplemented with 10% fetal bovine serum (FBS) and 1% Penicillin/Streptomycin (P/S) antibiotics, respectively. Human T24 bladder, MGHU3 bladder, Scaber bladder, A549 lung, MCF7 breast, MiaPaCa2 pancreas cancer cells were cultured in DMEM medium supplemented with 10% FBS and 1% P/S antibiotics. Human ASPC-1 pancreas, PC-3 prostate, DU-145 prostate, C4-2B prostate and 22rV1 prostate cancer cells were cultured in RPMI medium supplemented with 10% FBS and 1% P/S antibiotics. Human Hela cervix and HepG2 liver cancer cells were cultured EMEM medium supplemented with 10% FBS and 1% P/S antibiotics.
(§2) MTT reagent (3-(4,5-dimethylthiazol-2-yl)-2,5-diphenyltetrazolium bromide) was used to determine cell death as originally described by Mosmann. […] The concentration of the complexes was calculated based on the elemental composition of the complexes determined by the elemental analyses. […] After solubilization with 500 μL of DMSO, formazan was quantified spectrophotometrically with a microplate reader at 570 nm absorbance (ClarioSTAR, BMG LabTech). […] All the results were calculated from data obtained in at least three independent experiments performed in triplicate. […]

[3] = system: 22rV1 prostate cancer cells (PSMA-positive); test: Cell viability assay (MTT), dark and blue light; type: cell-based, Human; details: for Photosensitizing index (PI): 22Rv1, dark vs blue light; for SI (vs NIH-3T3) 22Rv1 Blue / SI (vs MC3T3) 22Rv1 Blue: blue light 458 nm
Summary of the method: (§3)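 Readout after 72 h: MTT reduction at 570 nm. Light condition: 8 h dark loading, 10 min irradiation at 458 nm (LEDs, 9.6 W), dark to 72 h; control condition kept dark for the full 72 h.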

[4] = system: DU-145 prostate cancer cells (PSMA-negative); test: Cell viability assay (MTT), dark and blue light; type: cell-based, Human; details: for Photosensitizing index (PI): DU145, dark vs blue light; for SI (vs MC3T3) DU145 Blue / SI (vs NIH-3T3) DU145 Blue: blue light 458 nm
Summary of the method: as §3

[5] = system: PSMA-negative cells (PC-3 and DU145); test: Cell viability assay (MTT), summary over PSMA-negative cancer cells; type: cell-based, Human; details: blue light 458 nm; read-out: GI50 mean over PSMA-negative cancer cells, irradiated
Experimental: as §1, §2

[6] = system: MiaPaCa2 pancreas cancer cells; test: Cell viability assay (MTT), dark and blue light; type: cell-based, Human; details: for Photosensitizing index (PI): MiaPaCa2, dark vs blue light; for GI50: read-out: GI50
Summary of the method: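 Tumor lines and non-tumor murine MC3T3 osteoblasts and NIH-3T3 fibroblasts were seeded overnight and treated with complexes at 0.1% (v/v) DMSO for 72 h. Light samples were irradiated 10 min after 8 h of dark incubation. Viability was measured by MTT absorbance at 570 nm.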

[7] = 22Rv1, blue light, read-out: GI50
[8] = 8 h in the dark, blue light 458 nm 10 min, then dark up to 72 h, read-out: GI50 22Rv1 Blue
[9] = in the dark, 72 h, read-out: GI50 22Rv1 Dark
[10] = 8 h in the dark, blue light 458 nm 10 min, then dark up to 72 h, read-out: GI50 DU145 Blue
[11] = DU145, blue light, read-out: GI50
[12] = in the dark, 72 h, read-out: GI50 DU145 Dark

Structure (SMILES) | depletion of the ABDA absorbance at 380 nm (1O2 production) [1] | GI50 [3, 7] | Photosensitizing index (PI) [3] | GI50 ([3]; 22Rv1, dark, read-out: GI50) | GI50 [3, 8] | SI (vs NIH-3T3) 22Rv1 Blue [3] | SI (vs MC3T3) 22Rv1 Dark [3] | SI (vs NIH-3T3) 22Rv1 Dark [3] | GI50 [3, 9] | GI50 [4, 10] | GI50 [4, 11] | Photosensitizing index (PI) [4] | GI50 ([4]; DU145, dark, read-out: GI50) | SI (vs MC3T3) DU145 Blue [4] | SI (vs NIH-3T3) DU145 Dark [4] | GI50 [4, 12] | SI (vs MC3T3) 22Rv1 Blue [3] | SI (vs NIH-3T3) DU145 Blue [4] | Photosensitizing index (PI) [6] | SI (vs MC3T3) ([6]; MiapaCa2, blue light) | further results
F[P-](F)(F)(F)(F)F.O=C(O)CC[C@H](NC(=O)N[C@@H](CCCCNC(=O)CCn1cc[n+]2[c]1[Ir-3]13([c]4ccccc4-c4c5ccccc5cc[n+]41)([c]1ccccc1-c1c4ccccc4cc[n+]13)[n+]1ccccc1-2)C(=O)O)C(=O)O [III-h] | fast depletion of the ABDA absorbance at 380 nm | 140 nM | 29.3 | 4100 nM | 140 nM | 131.9 | 12.9 | >25 | 4100 nM | 1410 nM | 1410 nM | 18.5 | 26100 nM | 5.9 | >3.8 | 26100 nM |  |  |  |  | GI50 [2]: 310 nM; SI (vs MC3T3) DU145 Dark [4]: 2.0; GI50 [5]: 1600 nM
F[P-](F)(F)(F)(F)F.O=C(O)CC[C@H](NC(=O)N[C@@H](CCCCNC(=O)CCn1cc[n+]2[c]1[Ir-3]13([c]4cccc5ccc6ccc[n+]1c6c45)([c]1cccc4ccc5ccc[n+]3c5c14)[n+]1ccccc1-2)C(=O)O)C(=O)O [III-i] |  | 1960 nM | 6.4 | 12500 nM | 2000 nM |  | 20.0 | >8 | 12500 nM | 8200 nM | 8160 nM | 5.6 | 45300 nM | 5.0 | >2.2 | 45300 nM | 20.7 | 6.8 |  |  | 
F[P-](F)(F)(F)(F)F.O=C(O)CC[C@H](NC(=O)N[C@@H](CCCCNC(=O)CCn1cc[n+]2[c]1[Ir-3]13([c]4c(sc5ccccc45)-c4cccc[n+]41)([c]1c(sc4ccccc14)-c1cccc[n+]13)[n+]1ccccc1-2)C(=O)O)C(=O)O [III-j] | fast depletion of the ABDA absorbance at 380 nm | 280 nM | 35.4 | 9900 nM | 280 nM | 38.0 |  | >10.1 | 9900 nM | 1400 nM | 1350 nM | 151.9 | 205000 nM | 9.3 |  | 205000 nM | 44.0 | 8.0 |  |  | consumption of ABDA (1O2 production) [1]: fast complete consumption of ABDA; SI (vs MC3T3) DU145 Dark [4]: >1.2
F[P-](F)(F)(F)(F)F.O=C(O)CC[C@H](NC(=O)N[C@@H](CCCCNC(=O)CCn1cc[n+]2[c]1[Ir-3]13([c]4ccccc4-c4sc5ccccc5[n+]41)([c]1ccccc1-c1sc4ccccc4[n+]13)[n+]1ccccc1-2)C(=O)O)C(=O)O [III-k] |  | 390 nM | 13.1 | 5100 nM | 8390 nM | 77.3 | 18.8 |  | 5100 nM | 2200 nM | 2180 nM | 7.5 | 16300 nM | 15.5 | >6.1 | 16300 nM | 87.1 | 13.8 |  |  | GI50 [2]: 310 nM; GI50 [5]: 1600 nM
F[P-](F)(F)(F)(F)F.O=C(NCCCn1cc[n+]2[c]1[Ir-3]13([c]4ccccc4-c4c5ccccc5cc[n+]41)([c]1ccccc1-c1c4ccccc4cc[n+]13)[n+]1ccccc1-2)[c-]1cccc1.[Fe+2].c1cc[cH-]c1 [IV-h] |  |  |  |  |  |  |  |  |  |  |  |  |  |  |  |  |  |  | 24.6 | 86.2 | SI (vs NIH-3T3) ([6]; MiapaCa2, blue light): 63.8; SI (vs NIH-3T3) ([6]; MiapaCa2, dark): 7.8; GI50 ([6]; MiapaCa2, dark): 1700 nM
F[P-](F)(F)(F)(F)F.O=C(NCCCn1cc[n+]2[c]1[Ir-3]13([c]4cccc5ccc6ccc[n+]1c6c45)([c]1cccc4ccc5ccc[n+]3c5c14)[n+]1ccccc1-2)[c-]1cccc1.[Fe+2].c1cc[cH-]c1 [IV-i] |  |  |  |  |  |  |  |  |  |  |  |  |  |  |  |  |  |  | 5.1 |  | SI (vs NIH-3T3) ([6]; MiapaCa2, blue light): 48.1; GI50 ([6]; MiapaCa2, blue light): 370 nM
F[P-](F)(F)(F)(F)F.O=C(NCCCn1cc[n+]2[c]1[Ir-3]13([c]4c(sc5ccccc45)-c4cccc[n+]41)([c]1c(sc4ccccc14)-c1cccc[n+]13)[n+]1ccccc1-2)[c-]1cccc1.[Fe+2].c1cc[cH-]c1 [IV-j] | fast depletion of the ABDA absorbance at 380 nm |  |  |  |  |  |  |  |  |  |  |  |  |  |  |  |  |  | 21.9 | 24.4 | consumption of ABDA (1O2 production) [1]: fast complete consumption of ABDA; SI (vs MC3T3) ([6]; MiapaCa2, dark): 4.7; SI (vs NIH-3T3) ([6]; MiapaCa2, dark): 17.9
F[P-](F)(F)(F)(F)F.O=C(NCCCn1cc[n+]2[c]1[Ir-3]13([c]4ccccc4-c4sc5ccccc5[n+]41)([c]1ccccc1-c1sc4ccccc4[n+]13)[n+]1ccccc1-2)[c-]1cccc1.[Fe+2].c1cc[cH-]c1 [IV-k] |  |  |  |  |  |  |  |  |  |  |  |  |  |  |  |  |  |  | 6.9 | 15.9 | SI (vs NIH-3T3) ([6]; MiapaCa2, blue light): 36.3; GI50 ([6]; MiapaCa2, blue light): 320 nM; SI (vs NIH-3T3) ([6]; MiapaCa2, dark): 8.5; GI50 ([6]; MiapaCa2, dark): 2200 nM
